Data set [1] in a line: In vivo antagonist activity at TRL9 in C57BL/6 mouse assessed as inhibition of ODN1585 stimulated IL-6 production at 1 mg/kg,po for 30 minutes and followed by ODN1585 addition measured after 90 mins by ELISA analysis relative to control. In kind it is functional. Also noted: scale not given: the % may be the effect or the level left. The following applies: time 120 min, 2 h.

The nature of data set [2]: Plasma protein binding in human assessed as free fraction. The format is ADME, cell-free.
The next data set has as its target Toll-like receptor 4 (Homo sapiens, UniProt O00206). Kind of data set: Antagonist activity at […] stimulated human TRL4 overexpressed in HEK293 cells assessed as inhibition of NF kappa B/Ap-1 activation preincubated with compound for 30 mins followed by […] stimulation measured after 22 hrs by SEAP reporter assay. In kind it is cell-based.
Data set [3] in a line: Toxicity in MRL/Ipr Systemic lupus erythematosus mouse model assessed as drug tolerability at 0.1 to 20 mg/kg, po administered for 8 weeks and measured 24 hrs post final dose. In kind it is organism-based. Particulars: in vivo, 1368 h, dose 0.1-20 mg/kg.
Data set [4] can be described thus: Oral bioavailability in mouse blood at 15 mg/kg. In kind it is ADME, organism-based.
Data set [5] can be described thus: In vivo antagonist activity at TRL9 in C57BL/6 mouse assessed as inhibition of ODN1585 stimulated IL-6 production at 10 mg/kg,po for 30 minutes and followed by ODN1585 addition measured after 90 mins by ELISA analysis relative to control. Also on record: scale not given: the % may be the effect or the level left. Particulars: time 120 min, 2 h. In kind it is functional.

Data set [6] relates to Mus musculus. Kind of data set: Anti-inflammatory activity against MRL/Ipr Systemic lupus erythematosus mouse model assessed as inhibition of proteinuria at 0.1 mg/kg, po administered for 8 weeks and measured 24 hrs post final dose relative to control. The format is functional. Also on record: scale not given: the % may be the effect or the level left. Particulars: time 1368 hrs.

A short description of data set [7]: Half life in mouse blood at 5 mg/kg, iv. In kind it is ADME, organism-based.
Another data set has as its target T1, Toll-like receptor 7 (Homo sapiens, UniProt Q9NYK1).
T1 sequence (Q9NYK1 whole entry): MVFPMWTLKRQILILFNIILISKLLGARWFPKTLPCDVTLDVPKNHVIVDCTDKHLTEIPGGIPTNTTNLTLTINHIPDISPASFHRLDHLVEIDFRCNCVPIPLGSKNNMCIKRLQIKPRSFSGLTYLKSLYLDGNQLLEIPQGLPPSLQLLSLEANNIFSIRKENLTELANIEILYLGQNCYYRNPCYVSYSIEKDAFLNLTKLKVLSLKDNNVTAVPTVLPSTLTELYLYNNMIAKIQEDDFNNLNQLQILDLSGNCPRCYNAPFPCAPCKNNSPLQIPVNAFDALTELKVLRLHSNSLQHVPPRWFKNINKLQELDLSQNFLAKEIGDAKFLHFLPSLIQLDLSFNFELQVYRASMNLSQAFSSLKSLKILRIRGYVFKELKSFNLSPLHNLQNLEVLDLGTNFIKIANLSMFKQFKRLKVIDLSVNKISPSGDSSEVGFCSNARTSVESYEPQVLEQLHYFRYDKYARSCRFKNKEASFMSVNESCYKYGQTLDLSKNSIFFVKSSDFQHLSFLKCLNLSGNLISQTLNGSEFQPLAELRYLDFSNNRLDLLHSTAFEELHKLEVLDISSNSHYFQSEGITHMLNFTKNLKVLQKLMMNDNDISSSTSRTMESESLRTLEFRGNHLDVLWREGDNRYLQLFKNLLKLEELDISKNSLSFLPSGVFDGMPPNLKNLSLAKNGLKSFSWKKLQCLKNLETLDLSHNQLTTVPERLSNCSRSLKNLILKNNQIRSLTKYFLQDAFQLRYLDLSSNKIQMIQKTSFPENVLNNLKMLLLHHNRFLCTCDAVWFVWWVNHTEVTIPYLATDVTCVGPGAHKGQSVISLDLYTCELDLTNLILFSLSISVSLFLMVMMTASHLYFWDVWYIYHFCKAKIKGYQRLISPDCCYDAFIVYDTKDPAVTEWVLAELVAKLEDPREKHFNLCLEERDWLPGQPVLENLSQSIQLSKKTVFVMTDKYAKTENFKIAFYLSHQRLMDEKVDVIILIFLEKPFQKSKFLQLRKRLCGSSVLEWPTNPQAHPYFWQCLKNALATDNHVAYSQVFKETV
Kind of data set: Antagonist activity at gardiquimod stimulated TRL7 in human PBMC cells assessed as inhibition of IL-6 production by ELISA analysis. The format is cell-based.

For data set [8], the system named is Mus musculus. Kind of data set: Anti-inflammatory activity against MRL/Ipr Systemic lupus erythematosus mouse model assessed as inhibition of proteinuria at 20 mg/kg, po administered for 8 weeks and measured 24 hrs post final dose relative to control. In kind it is functional. Also noted: scale not given: the % may be the effect or the level left. The following applies: time 1368 hrs.

For data set [9], the system named is Mus musculus. Kind of data set: Anti-inflammatory activity against MRL/Ipr Systemic lupus erythematosus mouse model assessed as inhibition of anti-dsDNA Ab titer at 20 mg/kg, po administered for 8 weeks and measured 24 hrs post final dose relative to control. The format is functional. Also on record: scale not given: the % may be the effect or the level left. The following applies: time 1368 hrs.

Data set [10] can be described thus: Cmax in mouse blood at 15 mg/kg, po. Also on record: dose 15 mg/kg, route po. The format is ADME, organism-based.
Data set [11] is described as follows: Clearance in mouse blood at 5 mg/kg, iv. In kind it is ADME, organism-based.
The subject of data set [12] is Mus musculus. Kind of data set: Anti-inflammatory activity against MRL/Ipr Systemic lupus erythematosus mouse model assessed as inhibition of anti-dsDNA Ab titer at 5 mg/kg, po administered for 8 weeks and measured 24 hrs post final dose relative to control. In kind it is functional. Also on record: scale not given: the % may be the effect or the level left. Particulars: time 1368 hrs.

Data set [13] in a line: In vivo antagonist activity at TRL7 in C57BL/6 mouse assessed as inhibition of gardiquimod stimulated IL-6 production at […],po for 30 minutes and followed by gardiquimod addition measured after 90 mins by ELISA analysis relative to control. Also on record: scale not given: the % may be the effect or the level left. The format is functional. Particulars: time 120 min, 2 h.

Data set [14] can be described thus: Toxicity in MRL/Ipr Systemic lupus erythematosus mouse model assessed as relative spleen weight at 20 mg/kg, po administered for 8 weeks and measured 24 hrs post final dose relative to control. Particulars: in vivo, 1368 h. In kind it is organism-based.

Sequence of Toll-like receptor 4 (O00206 whole entry): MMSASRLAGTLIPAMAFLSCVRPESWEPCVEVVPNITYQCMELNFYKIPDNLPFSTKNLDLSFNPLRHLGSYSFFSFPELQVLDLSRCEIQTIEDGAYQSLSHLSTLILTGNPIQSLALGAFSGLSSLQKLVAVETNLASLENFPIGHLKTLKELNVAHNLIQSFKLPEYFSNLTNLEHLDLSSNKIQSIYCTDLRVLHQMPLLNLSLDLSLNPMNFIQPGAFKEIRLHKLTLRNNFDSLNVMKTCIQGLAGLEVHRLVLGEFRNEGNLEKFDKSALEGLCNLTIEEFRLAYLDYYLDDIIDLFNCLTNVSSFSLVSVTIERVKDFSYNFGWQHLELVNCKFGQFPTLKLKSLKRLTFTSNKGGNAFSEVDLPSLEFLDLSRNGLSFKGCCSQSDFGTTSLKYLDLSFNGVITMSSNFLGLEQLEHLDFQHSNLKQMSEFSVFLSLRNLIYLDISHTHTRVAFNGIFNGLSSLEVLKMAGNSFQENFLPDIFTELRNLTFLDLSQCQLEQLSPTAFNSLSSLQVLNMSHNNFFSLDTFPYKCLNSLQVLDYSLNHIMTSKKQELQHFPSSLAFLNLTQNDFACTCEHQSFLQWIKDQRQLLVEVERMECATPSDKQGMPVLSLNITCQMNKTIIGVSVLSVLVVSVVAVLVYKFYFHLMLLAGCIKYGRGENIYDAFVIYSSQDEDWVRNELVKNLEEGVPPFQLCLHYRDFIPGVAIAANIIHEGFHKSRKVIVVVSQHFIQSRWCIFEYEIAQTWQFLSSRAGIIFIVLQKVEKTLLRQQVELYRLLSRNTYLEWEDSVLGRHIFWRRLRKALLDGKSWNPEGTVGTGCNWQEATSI

Consider `Cc1cc(-c2[nH]c3ccc(C4CCNCC4)cc3c2C(C)C)cc(C)n1`, for which the Activity in data set [1] is 16%; in [3], “Non-Toxic”; in [5], 33%; with Mus musculus [6], 69%; in the data set with Mus musculus [8] it was 93%; in the data set with Mus musculus [9] it was 53%. The results for the Activity (in the data set on Mus musculus [12]; in data set [13]; in data set [14]) were 20%, 83% and 51%, respectively. Moreover, the fraction unbound in data set [2] worked out at 0.09. Moreover, the IC50 is more than 10000 nM on Toll-like receptor 4 and 1 nM at Toll-like receptor 7. In data set [4], this molecule registered a bioavailability of 58%. In data set [7], this molecule gave a half-life of 9 h. The same molecule gave a Cmax in data set [10] of 255 nM. Moreover, in data set [11], the clearance is 146 mL/min/kg.
